Test [1] deals with S. aureus strain ATCC13709. The experiment in a line: Antibacterial susceptibility (MIC) in the presence of 50% serum. It counts as cell-based. The settings on record: for MIC: Staphylococcus aureus; for Minimum inhibitory concentration, CAMHB + 50% Human Serum / Minimum inhibitory concentration, CAMHB + 50% Mouse Serum / Minimum inhibitory concentration, CAMHB + 50% Rat Serum: S. aureus ATCC 13709. The protocol: (§1) Susceptibility of S. aureus strain ATCC13709 to the commercial antibiotics and synthesized compounds was determined by following the guidelines set by the Clinical and Laboratory Standards Institute (formerly the National Committee for Clinical Laboratory Standards) (M26-A). Compounds were diluted two-fold serially in either DMSO (Vancomycin 4, Oritavancin 8, compounds 10, 31, 33, 39, 44, 50, 60, 65), DMF (compounds 18 and 21) or in PBS (compound 6) and transferred to cation-adjusted Mueller Hinton broth (CAMHB; Becton Dickinson). 50 μL of compounds diluted in CAMHB was mixed with […] of bacteria diluted in CAMHB in 96-well microtiter plates. The final number of micro-organisms in the assay was 5×10^5 c.f.u. per mL and the final concentration of DMSO or DMF in the assay, if present, was 1.25%. Assays were set up in duplicate and incubated at 37° C. for 18 h. The concentration of compound that inhibited visible growth was reported as the minimum inhibitory concentration (MIC).
Susceptibility testing experiments were also carried out in the presence of serum. These experiments were carried out similar to the susceptibility testing with the following modifications. 75 μL of compounds diluted in CAMHB was mixed with 75 μL of bacteria diluted in 100% serum from any given source (commercial pooled mouse serum (MS) and human serum (HS), Equitech-Bio Inc.). The final concentration of animal serum in the assay was 50% and the concentrations of all other components were identical to those described for susceptibility testing.

The test system of test [2] is S. aureus strain ATCC13709. The test can be described thus: Antibacterial susceptibility (MIC) in CAMHB. It counts as cell-based. The following applies: for MIC: Staphylococcus aureus, ATCC13709, 18 h, read-out: Minimum inhibitory concentration, CAMHB; for Minimum inhibitory concentration, CAMHB: S. aureus ATCC 13709, cation adjusted Mueller-Hinton broth, 37° C., 18 h. The protocol:
as §1

Where [3] appears, read: ATCC13709, read-out: Minimum inhibitory concentration, CAMHB + 50% Human Serum.
Where [4] appears, read: ATCC13709, read-out: Minimum inhibitory concentration, CAMHB + 50% Mouse Serum.
The mark [5] stands for this setting: ATCC13709, read-out: Minimum inhibitory concentration, CAMHB + 50% Rat Serum.

Converted amounts (≈) assume the structure as drawn. Where a name gives a salt, the structure may show the parent alone.

As to `CN[C@H](CC(C)C)C(=O)N[C@H]1C(=O)N[C@@H](CC(N)=O)C(=O)N[C@H]2C(=O)N[C@H]3C(=O)N[C@H](C(=O)N[C@H](C(=O)O)c4cc(O)cc(O)c4-c4cc3ccc4O)[C@H](O)c3ccc(c(Cl)c3)Oc3cc2cc(c3O[C@@H]2O[C@H](CO)[C@@H](O)[C@H](O)[C@H]2O[C@H]2C[C@](C)(N)[C@H](O)[C@H](C)O2)Oc2ccc(cc2Cl)[C@H]1O` [Vancomycin (4), vancomycin hydrochloride, reference compound], the MIC turned out to be 1 µg/mL in test [1] (setting [3]), 2 µg/mL in test [1] (setting [4]), 2 µg/mL in test [1] (setting [5]) and 1 µg/mL in test [2].

Turning to `CC(C)CC(C(=O)NC1C(=O)NC(CC(N)=O)C(=O)NC2C(=O)NC3C(=O)NC(C(=O)NC(C(=O)O)c4cc(O)cc(O)c4-c4cc3ccc4O)C(O)c3ccc(c(Cl)c3)Oc3cc2cc(c3OC2OC(CO)C(O)C(O)C2OC2CC(C)(N)C(O)C(C)O2)Oc2ccc(cc2Cl)C1O)N(C)C(=O)CCC(=O)NC(P(=O)(O)O)P(=O)(O)O` (centres unmarked) [Compound 6], in test [1], the “Minimum inhibitory concentration, CAMHB + 50% Human Serum” value is 16 µg/mL; the “Minimum inhibitory concentration, CAMHB + 50% Mouse Serum” value is 32 µg/mL; the “Minimum inhibitory concentration, CAMHB + 50% Rat Serum” value came to 128 µg/mL. In test [2], the “Minimum inhibitory concentration, CAMHB” value came out at 64 µg/mL (≈ 37.2 µM).

For the compound `CN[C@H](CC(C)C)C(=O)N[C@H]1C(=O)N[C@@H](CC(N)=O)C(=O)N[C@H]2C(=O)N[C@H]3C(=O)N[C@H](C(=O)N[C@H](C(=O)O)c4cc(O)cc(O)c4-c4cc3ccc4O)[C@H](O[C@H]3C[C@](C)(N)[C@@H](O)[C@H](C)O3)c3ccc(c(Cl)c3)Oc3cc2cc(c3O[C@@H]2O[C@H](CO)[C@@H](O)[C@H](O)[C@H]2O[C@H]2C[C@](C)(NCc3ccc(-c4ccc(Cl)cc4)cc3)[C@@H](O)[C@H](C)O2)Oc2ccc(cc2Cl)[C@H]1O` [Oritavancin (8), oritavancin bisphosphoric acid salt, reference compound], the MIC in test [1] (setting [3]) is 1 µg/mL; in test [1] (setting [4]) it was 2 µg/mL; in test [1] (setting [5]), 0.25 µg/mL; in test [2], 0.5 µg/mL.

For `CC(C)C[C@H](C(=O)N[C@H]1C(=O)N[C@@H](CC(N)=O)C(=O)N[C@H]2C(=O)N[C@H]3C(=O)N[C@H](C(=O)N[C@H](C(=O)O)c4cc(O)cc(O)c4-c4cc3ccc4O)[C@H](O[C@H]3C[C@](C)(N)[C@@H](O)[C@H](C)O3)c3ccc(c(Cl)c3)Oc3cc2cc(c3O[C@@H]2O[C@H](CO)[C@@H](O)[C@H](O)[C@H]2O[C@H]2C[C@](C)(NCc3ccc(-c4ccc(Cl)cc4)cc3)[C@@H](O)[C@H](C)O2)Oc2ccc(cc2Cl)[C@H]1O)N(C)C(=O)CC(P(=O)(O)O)P(=O)(O)O.N.N.N` [Compound 44], in test [1], the “Minimum inhibitory concentration, CAMHB + 50% Human Serum” value stood at 32 µg/mL; the “Minimum inhibitory concentration, CAMHB + 50% Mouse Serum” value is 4 µg/mL; the “Minimum inhibitory concentration, CAMHB + 50% Rat Serum” value was 4 µg/mL. Besides, in test [2], the “Minimum inhibitory concentration, CAMHB” value was 32 µg/mL.

As to `CC(C)C[C@H](C(=O)N[C@H]1C(=O)N[C@@H](CC(N)=O)C(=O)N[C@H]2C(=O)N[C@H]3C(=O)N[C@H](C(=O)N[C@H](C(=O)O)c4cc(O)cc(O)c4-c4cc3ccc4O)[C@H](O[C@H]3C[C@](C)(N)[C@@H](O)[C@H](C)O3)c3ccc(c(Cl)c3)Oc3cc2cc(c3O[C@@H]2O[C@H](CO)[C@@H](O)[C@H](O)[C@H]2O[C@H]2C[C@](C)(NCc3ccc(-c4ccc(Cl)cc4)cc3)[C@@H](O)[C@H](C)O2)Oc2ccc(cc2Cl)[C@H]1O)N(C)C(=O)CCCOC(=O)CC(P(=O)(O)O)P(=O)(O)O` [Compound 50], in test [1], the “Minimum inhibitory concentration, CAMHB + 50% Human Serum” value is above 32 µg/mL; the “Minimum inhibitory concentration, CAMHB + 50% Mouse Serum” value amounted to 32 µg/mL; the “Minimum inhibitory concentration, CAMHB + 50% Rat Serum” value was above 32 µg/mL. The “Minimum inhibitory concentration, CAMHB” value in test [2] was 32 µg/mL (≈ 15.3 µM).

For the compound `CN[C@H](CC(C)C)C(=O)N[C@H]1C(=O)N[C@@H](CC(N)=O)C(=O)N[C@H]2C(=O)N[C@H]3C(=O)N[C@H](C(=O)N[C@H](C(=O)OCC(=O)Nc4ccc(CC(P(=O)(O)O)P(=O)(O)O)cc4)c4cc(O)cc(O)c4-c4cc3ccc4O)[C@H](O[C@H]3C[C@](C)(N)[C@@H](O)[C@H](C)O3)c3ccc(c(Cl)c3)Oc3cc2cc(c3O[C@@H]2O[C@H](CO)[C@@H](O)[C@H](O)[C@H]2O[C@H]2C[C@](C)(NCc3ccc(-c4ccc(Cl)cc4)cc3)[C@@H](O)[C@H](C)O2)Oc2ccc(cc2Cl)[C@H]1O.N.N.N` [Compound 33], in test [1], the “Minimum inhibitory concentration, CAMHB + 50% Human Serum” value is above 32 µg/mL; the “Minimum inhibitory concentration, CAMHB + 50% Mouse Serum” value worked out at 8 µg/mL; the “Minimum inhibitory concentration, CAMHB + 50% Rat Serum” value came out at 8 µg/mL. For the same compound, the “Minimum inhibitory concentration, CAMHB” value in test [2] is above 32 µg/mL.

As for `CC(C)C[C@H](C(=O)N[C@H]1C(=O)N[C@@H](CC(N)=O)C(=O)N[C@H]2C(=O)N[C@H]3C(=O)N[C@H](C(=O)N[C@H](C(=O)O)c4cc(O)cc(O)c4-c4cc3ccc4O)[C@H](O[C@H]3C[C@](C)(N)[C@@H](O)[C@H](C)O3)c3ccc(c(Cl)c3)Oc3cc2cc(c3O[C@@H]2O[C@H](CO)[C@@H](O)[C@H](O)[C@H]2O[C@H]2C[C@](C)(NCc3ccc(-c4ccc(Cl)cc4)cc3)[C@@H](O)[C@H](C)O2)Oc2ccc(cc2Cl)[C@H]1O)N(C)C(=O)CCCC(=O)NC(P(=O)(O)O)P(=O)(O)O.N.N.N` [Compound 10], in test [1], the “Minimum inhibitory concentration, CAMHB + 50% Human Serum” value was above 32 µg/mL; the “Minimum inhibitory concentration, CAMHB + 50% Mouse Serum” value was above 32 µg/mL; the “Minimum inhibitory concentration, CAMHB + 50% Rat Serum” value was above 32 µg/mL. Further, the “Minimum inhibitory concentration, CAMHB” value in test [2] is above 32 µg/mL.

Regarding `CN[C@H](CC(C)C)C(=O)N[C@H]1C(=O)N[C@@H](CC(N)=O)C(=O)N[C@H]2C(=O)N[C@H]3C(=O)N[C@H](C(=O)N[C@H](C(=O)OCC(=O)NC(P(=O)(O)O)P(=O)(O)O)c4cc(O)cc(O)c4-c4cc3ccc4O)[C@H](O[C@H]3C[C@](C)(N)[C@@H](O)[C@H](C)O3)c3ccc(c(Cl)c3)Oc3cc2cc(c3O[C@@H]2O[C@H](CO)[C@@H](O)[C@H](O)[C@H]2O[C@H]2C[C@](C)(NCc3ccc(-c4ccc(Cl)cc4)cc3)[C@@H](O)[C@H](C)O2)Oc2ccc(cc2Cl)[C@H]1O.O=C(O)C(F)(F)F.O=C(O)C(F)(F)F.O=C(O)C(F)(F)F` [Compound 31], in test [1], the “Minimum inhibitory concentration, CAMHB + 50% Human Serum” value was found to be 32 µg/mL; the “Minimum inhibitory concentration, CAMHB + 50% Mouse Serum” value came to 2 µg/mL; the “Minimum inhibitory concentration, CAMHB + 50% Rat Serum” value turned out to be 2 µg/mL. Besides, in test [2], the “Minimum inhibitory concentration, CAMHB” value worked out at 16 µg/mL.
